# ChEMBL document CHEMBL1201862, “PubChem BioAssay data set” (2004)
#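 Briefly, cells in 96-well plates were exposed to five compound concentrations for 48 h, and endpoints were estimated by linear interpolation. GI50 = concentration required for 50% inhibition of growth.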 The source made the active and inactive calls. No stated cut-off is given here; in the data, active = GI50 up to about 1.1 µM and inactive = higher.
# Tests used:
# Assay in all cases: inhibition of tumour cell growth, NCI panel, 48 h
# SNB-19 = system: SNB-19
# HOP-92 = system: HOP-92
# RPMI-8226 = system: RPMI-8226
# A549 = system: A549
# HT-29 = system: HT-29
# MDA-N = system: MDA-N
# SN12C = system: SN12C
# MDA-MB-231 = system: MDA-MB-231
# A498 = system: A498
# UACC-257 = system: UACC-257
# UACC-62 = system: UACC-62
# OVCAR-4 = system: OVCAR-4
# Malme-3M = system: Malme-3M
# UO-31 = system: UO-31
# SF-295 = system: SF-295
# HL-60 = system: HL-60
# NCI/ADR-RES = system: NCI/ADR-RES
# TK-10 = system: TK-10
# NCI-H23 = system: NCI-H23
SMILES,GI50 (SNB-19),GI50 (HOP-92),GI50 (RPMI-8226),GI50 (A549),GI50 (HT-29),GI50 (MDA-N),GI50 (SN12C),GI50 (MDA-MB-231),GI50 (A498),GI50 (UACC-257),GI50 (UACC-62),GI50 (OVCAR-4),GI50 (Malme-3M),GI50 (UO-31),GI50 (SF-295),GI50 (HL-60),GI50 (NCI/ADR-RES),GI50 (TK-10),GI50 (NCI-H23)
CO/N=C(\C)c1cccc(Nc2nc3ccccc3c3occc23)c1,15.7 µM (inactive),6.3 µM (inactive),12.9 µM (inactive),13.1 µM (inactive),5.19 µM (inactive),14.1 µM (inactive),13.3 µM (inactive),10.4 µM (inactive),3.61 µM (inactive),0.0419 µM (active),< 0.01 µM (active),14.8 µM (inactive),15.7 µM (inactive),< 0.01 µM (active),13 µM (inactive),27.7 µM (inactive),14.4 µM (inactive),12.7 µM (inactive),
O=C1c2ccccc2C(=O)N1CC1S(=O)(=O)OCCOS1(=O)=O,> 100 µM (inactive),> 100 µM (inactive),> 100 µM (inactive),> 100 µM (inactive),> 100 µM (inactive),> 100 µM (inactive),> 100 µM (inactive),> 100 µM (inactive),> 100 µM (inactive),> 100 µM (inactive),> 100 µM (inactive),> 100 µM (inactive),> 100 µM (inactive),> 100 µM (inactive),> 100 µM (inactive),> 100 µM (inactive),> 100 µM (inactive),> 100 µM (inactive),> 100 µM (inactive)
CC(=O)NC1=CC(=O)C=C(Cl)C1=O,> 100 µM (inactive),> 100 µM (inactive),22.6 µM (inactive),> 100 µM (inactive),> 100 µM (inactive),16.8 µM (inactive),> 100 µM (inactive),> 100 µM (inactive),> 100 µM (inactive),54.1 µM (inactive),37.5 µM (inactive),18.1 µM (inactive),25.7 µM (inactive),> 100 µM (inactive),> 100 µM (inactive),20.9 µM (inactive),> 100 µM (inactive),> 100 µM (inactive),43.9 µM (inactive)
O=C(CN1c2ccccc2Sc2ccccc21)n1cnc2ccccc21,> 100 µM (inactive),30.6 µM (inactive),90.4 µM (inactive),> 100 µM (inactive),73.6 µM (inactive),> 100 µM (inactive),> 100 µM (inactive),53.2 µM (inactive),45.3 µM (inactive),> 100 µM (inactive),> 100 µM (inactive),69 µM (inactive),74.8 µM (inactive),75.9 µM (inactive),> 100 µM (inactive),89.3 µM (inactive),97.5 µM (inactive),> 100 µM (inactive),77.3 µM (inactive)
OC(c1cc(C(O)(C(F)(F)F)C(F)(F)F)ncn1)(C(F)(F)F)C(F)(F)F,> 10 µM (inactive),> 10 µM (inactive),> 10 µM (inactive),> 10 µM (inactive),> 10 µM (inactive),> 10 µM (inactive),> 10 µM (inactive),> 10 µM (inactive),> 10 µM (inactive),> 10 µM (inactive),> 10 µM (inactive),> 10 µM (inactive),> 10 µM (inactive),> 10 µM (inactive),> 10 µM (inactive),> 10 µM (inactive),> 10 µM (inactive),> 10 µM (inactive),> 10 µM (inactive)
CC1OC(OC2C(O[C@@H]3C[C@@H]4CC[C@@H]5[C@H](CC[C@]6(C)[C@@H]7[C@H](C[C@@H]56)O[C@]5(CC[C@@H](C)CO5)[C@H]7C)[C@@]4(C)C[C@H]3O)OC(CO)C(OC3OC(CO)C(O)C(O)C3O)C2O)C(O)C(O)C1O (stereo partly specified),1.79 µM (inactive),2.51 µM (inactive),3.17 µM (inactive),1.57 µM (inactive),1.53 µM (inactive),1.91 µM (inactive),1.68 µM (inactive),1.8 µM (inactive),1.71 µM (inactive),1.87 µM (inactive),1.92 µM (inactive),2.06 µM (inactive),1.29 µM (inactive),2.12 µM (inactive),1.56 µM (inactive),1.91 µM (inactive),1.67 µM (inactive),,2.03 µM (inactive)
O=S(=O)(Nc1nc2ccccc2nc1Nc1ccc2ccccc2c1)c1ccccc1,9.42 µM (inactive),5.06 µM (inactive),2.44 µM (inactive),5.96 µM (inactive),11 µM (inactive),19.5 µM (inactive),10.4 µM (inactive),26.4 µM (inactive),28.3 µM (inactive),26.1 µM (inactive),4.67 µM (inactive),4.67 µM (inactive),4.53 µM (inactive),3.61 µM (inactive),5.07 µM (inactive),5.77 µM (inactive),5.73 µM (inactive),27.1 µM (inactive),6.89 µM (inactive)
